Experiments:
[1] = test system: AAV/HBV (human HBV genome, genotype D); assay: AAV/HBV mouse model, HBV inhibition (Example 4); assay type: in vivo, C57BL/6 mouse; conditions: for inhibition of HBeAg production (plasma): day 28 of dosing (Day 59 after infection)
Description: Adeno-associated virus/hepatitis B virus (AAV/HBV) is a recombinant AAV carrying replicable human HBV genome. Taking the advantage of the highly hepatotropic feature of genotype 8 AAV, the human HBV genome can be efficiently delivered to mouse liver cells. Infection of immune competent mice with AAV/HBV can result in long term HBV viremia, including release of human HBV virions, HBsAg and HBeAg into the blood, which mimics chronic HBV infection in patients. The AAV/HBV model can be used to evaluate the in vivo activity of various types of anti-HBV agents. Furthermore, this is an appropriate model for evaluation of immune modulators (see, for example Huang et al., Int. J. Onc. v39 pp1511-1519, 2011).
rAAV8-1.3HBV, genotype D, was purchased from Beijing FivePlus Molecular Medicine Institute (batch number A2018092406). The stock virus of 1×10^12 viral genome (v.g.)/mL was diluted to 5×10^11 v.g./mL with sterile phosphate-buffered saline (PBS) and 1×10^11 v.g. AAV/HBV in 200 μL was injected per 5 week old male C57BL/6 mouse 31 days prior to the initiation of dosing (day −31).
Blood samples (˜100 μL) were collected into K2-EDTA coated tubes via submandibular bleeding on days −17, −7 and −4. The samples were centrifuged at 7,000 g (4° C.) for 10 minutes for plasma collection. At least 40 μL plasma samples were prepared to determine the level of HBV-DNA by qPCR, and the levels of HBs Antigen (HBsAg) and HBe Antigen (HBeAg) by enzyme-linked immunosorbent assay (ELISA). Remaining plasma samples were stored at −80° C. for post-life assays. Based on the plasma levels of HBV DNA, HBsAg, HBeAg and body weights on days −17, −7 and −4, mice with qualified viral infection levels were selected and randomly divided into 7 groups with 5 mice in each group on day −1. All mice were evenly distributed in each group, to ensure no significant difference existed between each group in terms of HBV DNA, HBsAg, HBeAg level and body weight on day −4.
Animal groups were untreated, treated with Entecavir (ETV) at 0.005 mg/kg orally (p.o.) daily on days 0-34, Decoy at 2×10^8 killed bacteria per mouse administered tail vein i.v. on days 1, 2, 8, 9, 15, 16, 22, 23, 29 and 30, or ETV and Decoy. Plasma samples were obtained weekly an analyzed for HBV-DNA, HBsAg and HBeAg as described above.

[2] = test system: AAV/HBV (human HBV genome, genotype D); assay: AAV/HBV mouse model, long-term HBV inhibition with indomethacin (Example 5); assay type: in vivo, C57BL/6 mouse; conditions: for inhibition of HBV DNA production (plasma): all groups given indomethacin 10 μg/mL in drinking water, ETV 0.1 mg/kg
Description: This experiment was conducted in order to determine if a non-steroidal anti-inflammatory drug (NSAID) could enhance anti-viral activity by Decoy bacteria, if the anti-viral activity of Decoy is lost after cessation of treatment, and the potential toxic effects of ETV, Decoy and ETV+Decoy treatment. The experiment was carried out as described in Example 4, except that the AAV/HBV virus was injected at day −29, relative to start of dosing. HBV-DNA, HBsAg and HBeAg levels in plasma were determined on days −15, −8 and −1, relative to start of dosing on day 0, and the ETV dose was increased to 0.1 mg/kg. In addition, all groups represented in FIGS. 3, 4, 5 and 6 were administered indomethacin (NSAID) daily (10 μg/mL in drinking water). Dosing was carried out for 5 weeks as in Example 4, with plasma levels of HBV-DNA, HBsAg and HBeAg determined weekly, as well as every other week for 27 weeks after cessation of treatment. Inhibitory activity was determined by comparing treated groups at each time point to the control (indomethacin alone) group at the same time-point by unpaired, non-parametric Mann-Whitney statistical analysis.
Upon termination, the liver from each mouse was divided into multiple sections, snap frozen in liquid nitrogen immediately upon collection and stored at −80° C. Liver sections were used for HBV DNA detection and additional sections from each mouse liver were fixed in 10% neutral buffered formalin (NB F) for about 24 hours, then transferred for routine dehydration and paraffin embedding. Paraffin blocks were sectioned for hematoxylin-eosin (H&E) staining and pathology analysis, as well immunohistochemistry (IHC) analysis for HBsAg and HBcAg.

[3] = test system: human peripheral blood mononuclear cells (PBMCs); assay: Induction of cytokine secretion from human PBMCs in vitro (Luminex); assay type: cell-based; conditions: full titration peak mean
Description: Supernatants were harvested by centrifuging plates at 1,000 rpm for 10 minutes and stored at −80° C. Luminex analysis of cytokine levels was carried out with Millipore Human Cytokine/Chemokine Magnetic Bead panels HCYTOMAG-60K and HSTCMAG-28SK. Levels of cytokines were interpolated off a standard curve using a […] non-linear regression analysis where the fit=(A+((B−A)/(1+(((B−E)/(E−A))*((x/C)^D))))). The interpolated data was normalized to vehicle control or unstimulated control and analyzed. PBMCs from fresh normal peripheral blood leukapheresis paks (ALLCells, Alameda, CA) were isolated using a Ficoll gradient (Ficoll-Paque PLUS, Cat #17-144-02, density 1.077+/−0.001 g/mL from GE Healthcare Bio-Sciences, Pittsburgh, PA). The bacteria vehicle was phosphate-buffered saline (PBS) with no calcium and 2 mM MgCl2.
The experiment was carried out as described for Table 1.

C=C1[C@H](CO)[C@@H](O)C[C@@H]1n1cnc2c(=O)[nH]c(N)nc21 [ETV, Entecavir]
time to significant inhibition of HBV DNA production after initiation of dosing ([1]; ETV 0.005 mg/kg p.o. daily): ≤ 3 days | mice with plasma HBV DNA down to the lower limit of quantitation (120 copies/μL plasma) ([1]; by day 28 of dosing (day 59 after infection)): 5/5 | inhibition of HBeAg production (plasma) ([1]; without indomethacin): No inhibition | inhibition of HBeAg production (plasma) ([1]; without indomethacin, listed as Entecavir): not | inhibition of HBV DNA production (plasma) ([1]; vs no treatment group, ETV 0.005 mg/kg p.o. daily, Decoy 2×10^8 killed bacteria i.v. twice weekly): significantly inhibited | inhibition of HBsAg production (plasma) ([1]; without indomethacin): No inhibition | inhibition of HBV DNA at termination (day 253) ([2]; 27 weeks after cessation of treatment, in the presence of indomethacin): Statistically significant inhibition of HBV DNA was lost | inhibition of HBeAg expression in mouse livers ([2]; 27 weeks after the cessation of treatment, in the presence of indomethacin): not | body weight loss ([2]; ETV treatment 0.1 mg/kg, with indomethacin): No body weight loss | inhibition of HBV DNA production (plasma) [2]: inhibited

COc1ccc2c(c1)c(CC(=O)O)c(C)n2C(=O)c1ccc(Cl)cc1 [indomethacin]
inhibition of HBV DNA production (plasma) [2]: did not inhibit

CpG ODN 2006
GM-CSF induction [3]: 0 pg/mL | IFNγ induction [3]: 7 pg/mL | IL-1β induction [3]: 1 pg/mL | IL-6 induction [3]: 241 pg/mL | IL-8 induction [3]: 2,436 pg/mL | IL-10 induction [3]: 374 pg/mL | IL-12p70 induction [3]: 4 pg/mL | TNFα induction [3]: 51 pg/mL

Poly(I:C)
GM-CSF induction [3]: 0 pg/mL | IFNγ induction [3]: 103 pg/mL | IL-1β induction [3]: 22 pg/mL | IL-6 induction [3]: 129 pg/mL | IL-8 induction [3]: 1,452 pg/mL | IL-10 induction [3]: 8 pg/mL | IL-12p70 induction [3]: 18 pg/mL | TNFα induction [3]: 208 pg/mL
